Assay results reported in patent US20140094462A1, “SONIC HEDGEHOG MODULATORS” (priority 2009, published 2014).
Where two headings read alike, the source gives them in different places.

Legend:
Gli1 = test: Primary keratinocyte cell culture, reduction in Gli mRNA; format: cell-based; details: primary human keratinocytes
Method: To study the potency of the compounds of the invention in cells, select compounds of the invention were conducted with keratinocytes and the reduction in Gli mRNA was measured. Culturing of primary human keratinocytes was previously described (Nguyen, B. C., et al., Genes & Dev. 20:1028-1042 (2006)). The full thickness skin model, EpiDermFT System (MatTek, Ashland), consisted of normal, human-derived epidermal keratinocytes and normal, human-derived dermal fibroblasts which have been cultured to form a multilayered, highly differentiated model of the human dermis and epidermis. […] Gene expression is compared by quantifying mRNA levels by real time RT-PCR. For this, total RNA preparations […] are used in a reverse transcriptase reaction with a mix of oligonucleotide dT and random hexamer primers, followed by real time PCR with gene-specific primers (Gli1: Qiagen Quantitect PrimerAssay QT00060501; Gli2: Qiagen Quantitect PrimerAssay QT00018648), using an […] real time detection system (Bio-Rad) according to the manufacturer's recommendation, with SYBR Green (Bio-Rad) for detection.

ShhN protein = molecular target: T1, ShhN protein (Homo sapiens, UniProt Q15465); test: Surface Plasmon Resonance (SPR) protein binding assay on immobilized ShhN
T1 construct: auto-cleavage of full length Shh into an active 20 kD N-terminal fragment (ShhN); purchased R&D Systems
T1 sequence (Q15465 24-197 limits assumed, species assumed): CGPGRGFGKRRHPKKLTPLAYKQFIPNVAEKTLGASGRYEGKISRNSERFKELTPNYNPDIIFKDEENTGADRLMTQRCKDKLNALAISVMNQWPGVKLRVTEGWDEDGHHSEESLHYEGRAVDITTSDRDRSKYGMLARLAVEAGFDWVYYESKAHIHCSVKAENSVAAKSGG
Method: Biacore™ T100 (GE Healthcare, Uppsala, Sweden) was used to perform the experiments described herein. Sensor surface preparation and interaction analyses experiments were performed at 25° C.
Control surfaces were prepared similarly without protein derivatization and were utilized as a reference surfaces for compound binding experiments.
Zero concentration blank buffer cycles were included as negative control samples.
Data analysis was carried out using Biacore T100 evaluation software v1.1.1. […] Solvent correction was then applied as described previously.

C3H10T1/2 = test: Induction of osteogenic differentiation (modulation of osteoblast differentiation); details: Mus musculus, C3H 10T1/2, read-out: IC50 (nM) C3H10T1/2
From the text: Using assays previously described in Dwyer et al., J. Biol. Chem. 282, (2007), 8959-68 and Nakamura et al., Biochm. […] Res. Comm., 237 (1997) 465-9, select compounds of the invention were screened for their ability to modulate osteoblast differentiation.

[1] = rcm bond, toluene
[2] = SPR, Biacore T100, ShhN immobilized on CM4 chip, 25° C., compound 0.78 μM-25 μM, read-out: KD

Structure (SMILES) | Kd (ShhN protein; [2]) [nM] | IC50 (C3H10T1/2) [nM] | also measured
O=C(CCc1ccc(Cl)cc1)N[C@@H]1C/C=C/CCC(=O)O[C@H](c2ccccc2)CNC1=O [CA] | – | – | IC50 (Gli1): > 100000 nM
O=C(C[C@@H]1C/C=C/CCC(=O)OC[C@@H]2CCCN2C1=O)NCc1ccc(Cl)cc1 [DP, N-(4-chlorobenzyl)-2-((9S,14aS,E)-3,10-dioxo-3,4,5,8,9,10,12,13,14,14a-decahydro-1H-pyrrolo[2,1-c][1,4]oxaazacyclododecin-9-yl)acetamide] | 1000 to 100000 | 1000 to 100000 | –
CCN(CC)CCCNC(=O)C[C@@H]1C/C=C/CCC(=O)O[C@H](c2ccccc2)CNC1=O [EG] | > 100000 | – | IC50 (Gli1): 1000 to 100000 nM
CCOCCNC(=O)C[C@@H]1C/C=C/CCC(=O)O[C@H](c2ccccc2)CNC1=O [EH] | > 100000 | – | IC50 (Gli1): 1000 to 100000 nM
CCCCN1CCC(CNC(=O)C[C@@H]2C/C=C/CCC(=O)O[C@H](c3ccccc3)CNC2=O)CC1 [EI] | > 100000 | – | IC50 (Gli1): 1000 to 100000 nM
O=C(C[C@@H]1C/C=C/CCC(=O)O[C@H](c2ccccc2)CNC1=O)NC1CCCc2ccccc21 (some centres unmarked) [ER] | 1000 to 100000 | – | IC50 (Gli1): 100 to 1000 nM
CS(=O)(=O)N[C@@H]1C/C=C/CCC(=O)N[C@H](c2ccccc2)COC1=O [Example A, N-((3R,11R,E)-5,12-dioxo-3-phenyl-1-oxa-4-azacyclododec-8-en-11yl)-methane sulfonamide] | – | < 100 | –
CC(=O)N[C@@H]1C/C=C/CCC(=O)N[C@H](c2ccccc2)COC1=O [Example B, N-((3R,11R,E)-5,12-dioxo-3-phenyl-1-oxa-4-azacyclododec-8-en-11-yl)acetamide] | < 100 | < 100 | –
O=C(C[C@@H]1C[C@@H]2O[C@H]2CCC(=O)O[C@H](c2ccccc2)CNC1=O)NCc1ccc(Cl)cc1 [Example BY, N-(4-chlorobenzyl)-2-((1S,6R,10S,12S)-4,9-dioxo-6-phenyl-5,13-dioxa-8-azabicyclo[10.1.0]tridecan-10-yl)acetamide] | 100 to 1000 | – | IC50 (Gli1): < 100 nM
O=C(C[C@@H]1C[C@H](O)[C@@H](O)CCC(=O)O[C@H](c2ccccc2)CNC1=O)NCc1ccc(Cl)cc1 [Example BZ, N-(4-chlorobenzyl)-2-((2R,6S,8S,9S)-8,9-dihydroxy-5,12-dioxo-2-phenyl-1-oxa-4-azacyclododecan-6-yl)acetamide] | 1000 to 100000 | – | IC50 (Gli1): 100 to 1000 nM
O=C1CC/C=C/CCC(=O)O[C@H](c2ccccc2)CN1 [Example CB, (R,E)-2-phenyl-1-oxa-4-azacyclododec-8-ene-5,12-dione] | > 100000 | – | IC50 (Gli1): 100 to 1000 nM
O=C(C[C@@H]1C/C=C/CCC(=O)N[C@H](c2ccc(F)cc2)COC1=O)NCc1ccc(Cl)cc1 [Example CS, N-(4-chlorobenzyl)-2-((3R,11S,E)-3-(4-fluorophenyl)-5,12-dioxo-1-oxa-4-azacyclododec-8-en-11-yl)acetamide] | 100 to 1000 | < 100 | –
O=C(C[C@@H]1C/C=C/CCC(=O)N[C@H](c2ccc(Cl)cc2)COC1=O)NCc1ccc(Cl)cc1 [Example CX, N-(4-chlorobenzyl)-2-((3R,11S,E)-3-(4-chlorophenyl)-5,12-dioxo-1-oxa-4-azacyclododec-8-en-11-yl)acetamide] | < 100 | 100 to 1000 | –
C[C@@H]1C/C=C/C[C@H](C)C(=O)N[C@H](c2ccccc2)COC1=O [Example D, (3R,6S,11R,E)-6,11-dimethyl-3-phenyl-1-oxa-4-azacyclododec-8-ene-5,12-dione] | < 100 | 100 to 1000 | ring closure, yield of all isomers ([1]; from C=CC[C@@H](C)C(=O)OC[C@H](NC(=O)[C@@H](C)CC=C)c1ccccc1, Grubbs II, 20.0 mM, 25.0 °C, 12.0 h): 78%
C[C@H]1CCCC[C@@H](CC(=O)NCc2ccc(Cl)cc2)C(=O)NC[C@@H](c2ccccc2)OC1=O [Example DB, N-(4-chlorobenzyl)-2-((2R,6S,11S)-11-methyl-5,12-dioxo-2-phenyl-1-oxa-4-azacyclododecan-6-yl)acetamide] | < 100 | 100 to 1000 | –
C[C@H]1[C@@H](c2ccccc2)OC(=O)CCCCC[C@@H](CC(=O)NCc2ccc(Cl)cc2)C(=O)N1C [Example DC, N-(4-chlorobenzyl)-2-((2R,3S,6S)-3,4-dimethyl-5,12-dioxo-2-phenyl-1-oxa-4-azacyclododecan-6-yl)acetamide] | 100 to 1000 | 100 to 1000 | –

Structure (SMILES) | Kd (ShhN protein; [2]) [nM] | IC50 (C3H10T1/2) [nM] | also measured
O=C(C[C@@H]1C/C=C/CCC(=O)N[C@H](c2ccccc2)COC1=O)NCc1ccc(Cl)nc1 [Example DD, N-((6-chloropyridin-3-yl)methyl)-2-((3R,11S,E)-5,12-dioxo-3-phenyl-1-oxa-4-azacyclododec-8-en-11-yl)acetamide] | < 100 | 100 to 1000 | –
CC(C)N[C@H]1C/C=C/C[C@@H](CC(=O)NCc2ccc(Cl)cc2)C(=O)NC[C@@H](c2ccccc2)OC1=O [Example DE, N-(4-chlorobenzyl)-2-((2R,6S,11S,E)-11-(isopropylamino)-5,12-dioxo-2-phenyl-1-oxa-4-azacyclododec-8-en-6-yl)acetamide] | 100 to 1000 | 100 to 1000 | –
C[C@H]1C/C=C/C[C@@H](CC(=O)NCc2ccc(Cl)cc2)C(=O)NC[C@@H](c2ccccc2)OC1=O [Example DF, N-(4-chlorobenzyl)-2-((2R,6S,11S,E)-11-methyl-5,12-dioxo-2-phenyl-1-oxa-4-azacyclododec-8-en-6-yl)acetamide] | 100 to 1000 | 100 to 1000 | –
C[C@H]1C/C=C/C[C@@H](CC(=O)NCc2ccc(Cl)cc2)C(=O)OC[C@@H](c2ccccc2)NC1=O [Example DI, N-(4-chlorobenzyl)-2-((3R,6S,11S,E)-6-methyl-5,12-dioxo-3-phenyl-1-oxa-4-azacyclododec-8-en-11-yl)acetamide] | 100 to 1000 | 1000 to 100000 | –
CCN(CC)C(=O)C[C@@H]1C/C=C/CCC(=O)O[C@H](c2ccccc2)CNC1=O [Example DO, 2-((2R,6S,E)-5,12-dioxo-2-phenyl-1-oxa-4-azacyclododec-8-en-6-yl)-N,N-diethylacetamide] | < 100 | 1000 to 100000 | –
O=C(C[C@@H]1C/C=C/CCC(=O)O[C@H](c2ccccc2)CNC1=O)NCc1ccc([N+](=O)[O-])cc1 [Example DQ, 2-((2R,6S,E)-5,12-dioxo-2-phenyl-1-oxa-4-azacyclododec-8-en-6-yl)-N-(4-nitrobenzyl)acetamide] | – | > 100000 | Kd (ShhN protein): 1000 to 100000 nM
CCOCCNC(=O)C[C@@H]1C/C=C/CCC(=O)O[C@H](c2ccccc2)[C@H](C)N(C)C1=O [Example DR, 2-((2R,3S,6S,E)-3,4-dimethyl-5,12-dioxo-2-phenyl-1-oxa-4-azacyclododec-8-en-6-yl)-N-(2-ethoxyethyl)acetamide] | – | > 100000 | –
O=C(C[C@@H]1C[C@H](O)[C@@H](O)CCC(=O)OC[C@@H]2CCCN2C1=O)NCc1ccc(Cl)cc1 [Example G, N-(4-chlorobenzyl)-2-((6S,7S,9S,14aS)-6,7-dihydroxy-3,10-dioxododecahydro-1H-pyrrolo[2,1-c][1,4]oxaazacyclododecin-9-yl)acetamide] | 100 to 1000 | 1000 to 100000 | –
O=C1CC/C=C/C[C@@H](O)C(=O)OC[C@@H](c2ccccc2)N1 [Example H, (3R,11R,E)-11-hydroxy-3-phenyl-1-oxa-4-azacyclododec-8-ene-5,12-dione] | < 100 | 1000 to 100000 | –
C[C@@H]1CCCCCC(=O)N[C@H](c2ccccc2)COC1=O [Example J, (3R,11R)-11-methyl-3-phenyl-1-oxa-4-azacyclododecane-5,12-dione] | < 100 | 1000 to 100000 | –
C[C@@H]1C/C=C/CC(F)(F)C(=O)N[C@H](c2ccccc2)COC1=O [Example K, (3R,11R,E)-6,6-difluoro-11-methyl-3-phenyl-1-oxa-4-azacyclododec-8-ene-5,12-dione] | 100 to 1000 | > 100000 | ring closure, yield of all isomers ([1]; from C=CC[C@@H](C)C(=O)OC[C@H](NC(=O)C(F)(F)CC=C)c1ccccc1): 84%
C[C@@H]1CCCCC(F)(F)C(=O)N[C@H](c2ccccc2)COC1=O [Example L, (3R,11R)-6,6-difluoro-11-methyl-3-phenyl-1-oxa-4-azacyclododecane-5,12-dione] | – | > 100000 | –
C[C@@H]1C/C=C/C[C@@H](N)C(=O)N[C@H](c2ccccc2)COC1=O [Example M, (3R,6R,11R,E)-6-amino-11-methyl-3-phenyl-1-oxa-4-azacyclododec-8-ene-5,12-dione] | 100 to 1000 | > 100000 | –
CC(=O)N[C@@H]1C/C=C/C[C@@H](C)C(=O)OC[C@@H](c2ccccc2)NC1=O [Example N, N-((3R,6R,11R,E)-11-methyl-5,12-dioxo-3-phenyl-1-oxa-4-azacyclododec-8-en-6-yl)acetamide] | 100 to 1000 | > 100000 | –
O=C1CC/C=C/CCC(=O)OCC(c2ccccc2)N1 (centres unmarked) [F] | – | 100 to 1000 | –
